According to patent US20250360145A1, “CSF-1R INHIBITORS AND USES THEREOF” (Myrobalan Therapeutics, Inc., priority 2022, published 2025):
Like-named read-outs stand apart in the source and are kept apart here.

Assays:
[1] = tested on: Ba/F3_CSF-1R (stably expressing human CSF-1R kinase); assay: Cell proliferation assay, Ba/F3_CSF-1R; type: cell-based; settings: BaF3, 72 h
[2] = tested on: EOC2 cell; assay: Cell proliferation assay, EOC2; type: cell-based, mouse
[3] = target: CSF-1R (Homo sapiens (Human), UniProt P07333); assay: Biochemical HTRF kinase assay, CSF-1R; settings: Table 2; recombinant human CSF-1R;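 also: enzyme incubated with inhibitor plus a substrate and ATP mix for one hour at room temperature before HTRF detection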
[4] = Ba/F3_CSF-1R cells, 72 hours treatment, read-out: CSF-1R BaF3 EC50
[5] = Mus musculus, 72 h, EOC2 cells, 72 hours treatment, read-out: ECO2 EC50
[6] = read-out: CSF-1R BaF3 EC50 (nM)

Chain of CSF-1R (P07333 20-972): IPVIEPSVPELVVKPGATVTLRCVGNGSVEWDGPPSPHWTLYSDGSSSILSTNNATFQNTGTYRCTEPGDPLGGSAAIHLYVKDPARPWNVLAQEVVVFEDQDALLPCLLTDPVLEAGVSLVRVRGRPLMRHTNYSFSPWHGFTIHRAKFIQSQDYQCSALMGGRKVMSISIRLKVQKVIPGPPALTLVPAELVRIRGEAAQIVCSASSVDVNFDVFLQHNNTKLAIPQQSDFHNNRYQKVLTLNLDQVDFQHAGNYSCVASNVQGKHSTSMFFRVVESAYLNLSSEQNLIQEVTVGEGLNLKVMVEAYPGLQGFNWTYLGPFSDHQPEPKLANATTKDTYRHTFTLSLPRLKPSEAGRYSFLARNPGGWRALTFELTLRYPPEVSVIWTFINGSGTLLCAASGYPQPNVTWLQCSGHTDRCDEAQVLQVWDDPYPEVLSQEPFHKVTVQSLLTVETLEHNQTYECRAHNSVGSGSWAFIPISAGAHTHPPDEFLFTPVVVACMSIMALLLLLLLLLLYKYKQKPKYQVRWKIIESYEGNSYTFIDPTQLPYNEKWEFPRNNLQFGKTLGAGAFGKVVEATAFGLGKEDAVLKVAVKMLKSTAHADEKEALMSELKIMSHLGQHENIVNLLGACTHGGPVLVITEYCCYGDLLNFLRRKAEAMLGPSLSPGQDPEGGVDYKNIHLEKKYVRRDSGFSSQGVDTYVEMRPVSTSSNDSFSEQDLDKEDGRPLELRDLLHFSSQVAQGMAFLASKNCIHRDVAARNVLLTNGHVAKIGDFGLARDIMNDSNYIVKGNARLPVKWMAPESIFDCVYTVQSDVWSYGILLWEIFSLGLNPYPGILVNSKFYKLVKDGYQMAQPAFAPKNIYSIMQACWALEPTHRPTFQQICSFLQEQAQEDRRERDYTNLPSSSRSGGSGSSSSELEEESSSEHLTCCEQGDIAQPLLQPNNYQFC

SMILES	EC50 [1, 4]	EC50 [2, 5]	IC50 [3]	EC50 [1, 6]	EC50 ([2]; Mus musculus, 72 h, read-out: ECO2 EC50 (nM))	EC50 ([2]; EOC2 cells, 72 hours treatment, read-out: ECO2 EC50)
COc1ccc(COc2ncc(C(F)c3ccnc4cc(OC)cnc34)cc2OC)nc1 (stereo not drawn) [Example 84, 8-(fluoro(5-methoxy-6-((5-methoxypyridin-2-yl)methoxy)pyridin-3-yl)methyl)-3-methoxy-1,5-naphthyridine]	> 1000 nM	> 1000 nM	0.0284 µM	–	–	–
COc1cnc2c(Cc3cnc(OCc4ccc(CN(C)C)cn4)c(OC)c3)ccnc2c1 [Example 85]	> 1000 nM	> 1000 nM	0.11 µM	–	–	–
COc1cnc2c(Cc3cnc(OCc4cc5n(n4)CCCO5)c(OC)c3)ccnc2c1 [Example 86]	290 nM	183 nM	0.0044 µM	–	–	–
COc1cnc2c(Cc3cnc(OCc4ccc(C5CN(C)C5)cn4)c(OC)c3)ccnc2c1 [Example 89]	> 1000 nM	> 1000 nM	0.286 µM	–	–	–
COc1cnc2c(Cc3cnc(OCc4cc(C5COC5)no4)c(OC)c3)ccnc2c1 [Example 90]	282 nM	154 nM	0.0174 µM	–	–	–
COc1cnc2c(Cc3cnc(OCc4cc(C)n(C5CN(C)C5)n4)c(OC)c3)ccnc2c1 [Example 91]	753 nM	388 nM	0.0406 µM	–	–	–
COc1cnc2c(Cc3cnc(OCc4cnc5c(c4)CCC5OC)c(OC)c3)ccnc2c1 (stereo not drawn) [Example 92]	67.9 nM	26 nM	0.0018 µM	–	–	–
COc1cnc2c(Cc3cnc(OCc4cn5c(n4)CN(C)CC5)c(OC)c3)ccnc2c1 [Example 94]	> 1000 nM	> 1000 nM	0.014 µM	–	–	–
[2H]C([2H])(c1cnc(OCc2ccc(OC)cn2)c(OC)c1)c1ccnc2cc(OC)cnc12 [Example 95]	42.2 nM	54.3 nM	0.0034 µM	–	–	–
COCc1cc(COc2ncc(Cc3ccnc4cc(OC)cnc34)cc2OC)nn1C [Example 96]	234 nM	190 nM	0.0162 µM	–	–	–
COc1cnc2c(Cc3cnc(OCc4cc(C(F)(F)F)n(C)n4)c(OC)c3)ccnc2c1 [Example 97]	34 nM	82.7 nM	0.002 µM	–	–	–
COc1cnc2c(Cc3cnc(OCc4cc5n(n4)CCOC5C)c(OC)c3)ccnc2c1 (stereo not drawn) [Example 98]	57.3 nM	54.7 nM	0.0047 µM	–	–	–
COc1cnc2c(Cc3cnc(OCc4cc5n(n4)CCOC5(C)C)c(OC)c3)ccnc2c1 [Example 99]	59.1 nM	51.7 nM	0.0056 µM	–	–	–
COc1cnc2c(Cc3cnc(OCc4cc(C(C)OC)n(C)n4)c(OC)c3)ccnc2c1 (stereo not drawn) [Example 102]	134 nM	77 nM	0.004 µM	–	–	–
COc1cnc2c(Cc3cnc(OCc4cc5n(n4)C(C)COC5)c(OC)c3)ccnc2c1 (stereo not drawn) [Example 103]	41.7 nM	26 nM	0.0019 µM	–	–	–
COc1cnc2c(Cc3cnc(OCc4cc(C(C)C)nn4C)c(OC)c3)ccnc2c1 [Example 106]	95.9 nM	76.3 nM	0.0026 µM	–	–	–
COc1cnc2c(Cc3cnc(OCc4cc5n(n4)CCCOC5)c(OC)c3)ccnc2c1 [Example 107]	65.9 nM	37.1 nM	0.0016 µM	–	–	–
COc1cnc2c(Cc3cnc(OCc4cc5n(n4)CC4(CC4)C5)c(OC)c3)ccnc2c1 [Example 108]	37.6 nM	23.7 nM	0.0019 µM	–	–	–
COc1cnc2c(Cc3cnc(OCc4cc(C5CC5)n(C)n4)c(OC)c3)ccnc2c1 [Example 109]	102 nM	43.7 nM	0.0011 µM	–	–	–
COc1cnc2c(Cc3cnc(OCc4cc5n(n4)C[C@H](C(F)(F)F)C5)c(OC)c3)ccnc2c1 [Example 110]	109 nM	36.2 nM	0.0034 µM	–	–	–
COc1cnc2c(Cc3cnc(OCc4cc5n(n4)[C@H]4C[C@H]4C5)c(OC)c3)ccnc2c1 [Example 111]	35 nM	17.4 nM	0.0022 µM	–	–	–
COc1cnc2c(Cc3cnc(OCc4cc(C(C)(C)OC)n(C)n4)c(OC)c3)ccnc2c1 [Example 113]	348 nM	143 nM	0.0123 µM	–	–	–
COc1cnc2c(Cc3cnc(OCc4cccc(C(=O)N(C)C)n4)c(OC)c3)ccnc2c1 [Example 117]	344 nM	170 nM	0.0211 µM	–	–	–
COc1cnc2c(Cc3cnc(OCc4cccc(N5CCC5)n4)c(OC)c3)ccnc2c1 [Example 118]	96.9 nM	34.5 nM	0.0036 µM	–	–	–
COc1cnc2c(Cc3cnc(OCc4cc5n(n4)[C@@H]4C[C@@H]4C5)c(OC)c3)ccnc2c1 [Example 120]	43.7 nM	18 nM	0.0019 µM	–	–	–
COc1cnc2c(Cc3cnc(OCc4ccc5cnn(C)c5n4)c(OC)c3)ccnc2c1 [Example 122]	131 nM	108 nM	0.014 µM	–	–	–
COc1cnc2c(Cc3cnc(OCc4cccc(N(C)C(C)=O)n4)c(OC)c3)ccnc2c1 [Example 123]	128 nM	77 nM	0.0525 µM	–	–	–

SMILES	EC50 [1, 4]	EC50 [2, 5]	IC50 [3]	EC50 [1, 6]	EC50 ([2]; Mus musculus, 72 h, read-out: ECO2 EC50 (nM))	EC50 ([2]; EOC2 cells, 72 hours treatment, read-out: ECO2 EC50)
COc1cnc2c(Cc3cnc(OCc4cccn(C)c4=O)c(OC)c3)ccnc2c1 [Example 124]	> 1000 nM	442 nM	0.32 µM	–	–	–
COc1cnc2c(Cc3cnc(OCc4cccc(=O)n4C)c(OC)c3)ccnc2c1 [Example 125]	> 1000 nM	950 nM	0.522 µM	–	–	–
COc1ccc(COc2ncc(Cc3ccnc4cc(N5CCC(OC)C5)cnc34)cc2OC)nc1 (stereo not drawn) [Example 126]	3.8 nM	2.4 nM	0.0122 µM	–	–	–
COc1ccc(COc2ncc(Cc3ccnc4cc(N5CCC5)cnc34)cc2OC)nc1 [Example 127]	28 nM	25.4 nM	0.0223 µM	–	–	–
COc1cnc2c(Cc3cnc(OCc4cc5n(n4)C[C@@H](F)C5)c(OC)c3)ccnc2c1 [Example 128]	21.5 nM	4.9 nM	0.0049 µM	–	–	–
COc1cnc2c(Cc3cnc(OCc4ccc5nccn5n4)c(OC)c3)ccnc2c1 [Example 129]	307 nM	166 nM	0.0427 µM	–	–	–
COc1ccc(COc2ncc(Cc3ccnc4cc(-c5cnn(C)c5)cnc34)cc2OC)nc1 [Example 130]	2 nM	1.5 nM	0.0016 µM	–	–	–
COc1cnc2c(Cc3cnc(OCc4nc5cccnc5n4C)c(OC)c3)ccnc2c1 [Example 132]	> 1000 nM	> 1000 nM	0.879 µM	–	–	–
COc1ccc(COc2ncc(Cc3ccnc4cc(C(=O)N(C)C)cnc34)cc2OC)nc1 [Example 133]	443 nM	312 nM	0.0588 µM	–	–	–
COc1ccc(COc2ncc(Cc3ccnc4cc(N5CCNCC5)cnc34)cc2OC)nc1 [Example 135]	25.8 nM	66.5 nM	0.0224 µM	–	–	–
COc1ccc(COc2ncc(Cc3ccnc4cc(-c5cnc(C)s5)cnc34)cc2OC)nc1 [Example 138, 5-(8-((5-methoxy-6-((5-methoxypyridin-2-yl)methoxy)pyridin-3-yl)methyl)-1,5-naphthyridin-3-yl)-2-methylthiazole]	–	2.2 nM	0.0126 µM	1.8 nM	–	–
COc1ccc(COc2ncc(Cc3ccnc4cc(-c5ccccn5)cnc34)cc2OC)nc1 [Example 139]	8.8 nM	7.9 nM	0.0113 µM	–	–	–
COc1ccc(COc2ncc(Cc3ccnc4cc(-c5cccnc5)cnc34)cc2OC)nc1 [Example 140, 8-((5-methoxy-6-((5-methoxypyridin-2-yl)methoxy)pyridin-3-yl)methyl)-3-(pyridin-3-yl)-1,5-naphthyridine]	–	10.6 nM	0.0094 µM	9.8 nM	–	–
COc1ccc(COc2ncc(Cc3ccnc4cc(N5CC(OC)C5)cnc34)cc2OC)nc1 [Example 141]	5.8 nM	3.7 nM	0.0071 µM	–	–	–
COc1ccc(COc2ncc(Cc3ccnc4cc(-n5cc(C)cn5)cnc34)cc2OC)nc1 [Example 142]	7.3 nM	4.8 nM	0.0138 µM	–	–	–
COc1ccc(COc2ncc(Cc3ccnc4cc(-n5ccnc5C)cnc34)cc2OC)nc1 [Example 143]	45.9 nM	57.5 nM	0.0157 µM	–	–	–
COc1ccc(COc2ncc(Cc3ccnc4cc(N5CC(F)(F)C5)cnc34)cc2OC)nc1 [Example 144]	10.7 nM	25.3 nM	0.0113 µM	–	–	–
COc1cnc2c(Cc3cnc(OCc4cc5cnccn5n4)c(OC)c3)ccnc2c1 [Example 145]	229 nM	178 nM	0.0391 µM	–	–	–
COc1ccc(COc2ncc(Cc3c(F)cnc4cc(OC)cnc34)cc2OC)nc1 [Example 146]	> 1000 nM	> 1000 nM	0.208 µM	–	–	–
COc1cnc2c(Cc3cnc(OCc4ccn5nccc5c4)c(OC)c3)ccnc2c1 [Example 147]	60.9 nM	78.8 nM	0.0079 µM	–	–	–
COc1cnc2c(Cc3cnc(OCc4ccc5ccnn5c4)c(OC)c3)ccnc2c1 [Example 148]	37.3 nM	49.8 nM	0.0063 µM	–	–	–
COc1cnc2c(Cc3cnc(OCc4cc5cccnc5[nH]4)c(OC)c3)ccnc2c1 [Example 149]	61.6 nM	91.2 nM	0.0039 µM	–	–	–
COc1cnc2c(Cc3cc(OC)c4nc(N5CCC(OC)CC5)ncc4c3)ccnc2c1 [Example 150]	> 1000 nM	> 1000 nM	0.947 µM	–	–	–
COc1ccc(COc2ccc(Cc3ccnc4cc(OC)cnc34)cn2)nc1 [Example 151, 3-methoxy-8-((6-((5-methoxypyridin-2-yl)methoxy)pyridin-3-yl)methyl)-1,5-naphthyridine]	–	–	0.0226 µM	412 nM	280 nM	–
COc1cnc2c(Cc3ccc4nc(N5CCC(OC)CC5)ncc4c3)ccnc2c1 [Example 152]	> 1000 nM	> 1000 nM	> 1 µM	–	–	–
COc1cnc2c(Cc3ccc4nc([C@H]5CC[C@@H](OC)CC5)cnc4c3)ccnc2c1 [Example 154]	329 nM	–	0.0286 µM	–	–	199 nM
